The record followed here is US20250304609A1, “POLYMORPHIC FORM OF CHALCONE GLYCOSIDE COMPOUND, AND PREPARATION METHOD AND APPLICATION THEREOF” (ZHEJIANG YONGNING PHARMACEUTICAL CO., LTD., priority 2022, published 2025).

For series [1], the system named is H9c2 cardiomyocytes. Put plainly: Flow cytometry (Annexin V-FITC) for cell apoptosis detection (OGD/R). The class given is cell-based. Particulars: OGD/R + 80 μg/ml, 24 h pretreatment; control 7.9%, model 20.3%. The method, then:
(§1) Establishment of cellular oxygen-glucose deprivation/reperfusion (OGD/R) models. […] ischemia was simulated by incubation in a three-gas incubator (95% N2, 5% CO2) using sugar-free culture medium for 8-h culture, followed by transfer to a normal CO2 incubator for 12-h culture to simulate reperfusion.
Hoechst 33342 staining method for cell apoptosis detection. H9c2 cardiomyocytes were inoculated into a 6-well plate at a density of 2×10^5 cells/well. When the cells were completely adhered to the wall and grew to an appropriate degree of confluence, the cells were divided into a control group, a YN17 80 μg/ml group, a model group, and an OGD/R+80 μg/ml group. In the blank group, 2 mL of a fresh culture medium was added to each well and cultured in a CO2 incubator. The same amount of sugar-free DMEM was added to each well in the model group. […] After the treatment of each group, staining was performed according to the instructions of the Hoechst 33342 staining solution, and the nucleus morphology and fluorescence intensity of each group were observed under a fluorescence microscope.
Flow cytometry for cell apoptosis detection. […] After the treatment of each group, staining was performed according to the instructions of the Annexin V-FITC cell apoptosis detection kit, and cell apoptosis was detected by a flow cytometer.

In series [2] the test system is H9c2 cells. In words: Survival rate of H9c2 cells after oxygen-glucose deprivation/reperfusion (OGD/R). Particulars: 20, 40 and 80 μg/ml. The class given is cell-based. As for the experimental part: as §1
A short description of series [3]: Stability tests (accelerated and long-term) of salt and crystal forms. The class given is physicochemical. Particulars: for Relevant substance, Single impurity / Relevant substance, Total impurities / Content determination: HPLC; for Content determination: content of C27H32O16; for Calcium element: ICP-MS; for pH: solution 5 mg per 1 ml in water. The method, then:
The crystal form A for the stability data in the following table is prepared by the method of Example 1. The intermediate was adopted, water was used as a system, calcium carbonate was added for reaction, the solution was filtered and then allowed to stand for crystallization, and subjected to suction filtration, and the filter cake was washed with water and dried by suction, and dried under reduced pressure at 30° C. for 4-6 hours to obtain the crystal form A.
For stability tests and inspection methods, please see the attached stability solutions and quality standards.
[Character] Ocular estimate method: this sample was a yellow powder.
[Examination] PH value: this sample was taken and added with water to make a solution containing 5 mg per 1 ml. According to the pH value determination method (Chinese Pharmacopoeia 2020 Edition Fourth General Rule 0631), the pH value should be 5.0-7.0.
Relevant substances. Determination of relevant substances was performed according to high-performance liquid chromatography (Chinese Pharmacopoeia 2020 Edition Fourth General Rule 0512).
Test sample solution. An appropriate amount of this sample was taken, accurately weighed, dissolved by addition of a diluent, and diluted quantitatively to prepare a solution containing 1.0 mg per 1 ml. The solution was shaken well, filtered through a microporous filter membrane (0.45 μm), and the subsequent filtrate was taken.
Chromatographic conditions. Octadecylsilane bonded silica gel was used as a filler: […] potassium dihydrogen phosphate solution (1.36 g of potassium dihydrogen phosphate was taken into a 1000 mL measuring flask, dissolved by addition of water, and diluted to the scale) was used as a mobile phase A, methanol was used as a mobile phase B, and gradient elution was performed according to the following table; the detection wavelength was 375 nm; and the injection volume was 5 μl.
Limit If there were impurity peaks in the chromatogram of the test sample solution, the area of a single impurity peak shall not be greater than 0.005 times (0.5%) the total peak area, and the sum of the areas of each impurity peak shall not be greater than 0.015 times (1.5%) the total peak area. Chromatographic peaks less than 0.02% of the peak area of the main component can be ignored.
Water content This sample was taken, and according to the method for water content determination (Chinese Pharmacopoeia 2020 Edition Fourth General Rule 0832 First Method), the water content shall not exceed 15.0%.
Calcium element Determination of calcium element was performed according to inductively coupled plasma mass spectrometry (Chinese Pharmacopoeia 2020 Edition Fourth General Rule 0412).
[Content determination] Content determination was performed according to high-performance liquid chromatography (Chinese Pharmacopoeia 2020 Edition Fourth General Rule 0512).
Chromatographic conditions. Octadecylsilane bonded silica gel was used as a filler, methanol-acetonitrile-water-phosphoric acid (26:2:72:0.04) was used as a mobile phase, and detection wavelength was 403 nm; and the injection volume was 10 μl.
Determination method. The test sample solution and comparative sample solution were accurately measured, and injected into the liquid chromatograph separately, and the chromatogram was recorded. The content of C27H32O16 in the test sample was calculated by the peak area according to the external standard method.

Setting [4] is: Accelerated 6 months, 40° C. ± 2° C./75% ± 5% RH.
Setting [5] is: Long-term 6 months, 25° C. ± 2° C./60% ± 5% RH.

As to `O=C(/C=C/c1ccc(O)cc1)C1=C(O)C([C@@H]2O[C@H](CO)[C@@H](O)[C@H](O)[C@H]2O)=C([O-])[C@@](O)([C@@H]2O[C@H](CO)[C@@H](O)[C@H](O)[C@H]2O)C1=O.[Ca+2].[OH-]` [YN17, (S)-3,6-dihydroxy-4-((E)-3-(4-hydroxyphenyl)acryloyl)-5-oxo-6-((2R,3R,4S,5S,6R)-3,4,5-trihydroxy-6-(hydroxymethyl)tetrahydro-2H-pyran-2-yl)-2-((2S,3R,4R,5S,6R)-3,4,5-trihydroxy-6-(hydroxymethyl)tetrahydro-2H-pyran-2-yl)cyclohexyl-1,3-diene-1-hydroxycalcium], the apoptosis rate in series [1] was found to be 13.3%. Besides, the “survival rate of cells” value in series [2] is reported as “can improve the survival rate of cells in different degrees”. Besides, in series [3] (0 months), the Character result is reported as “Yellow”; the Water content is on record as 9.9%; the “Relevant substance, Single impurity” value is recorded as 0.25%; the “Relevant substance, Total impurities” value is 0.25%. In addition, in series [3] (0 months), the Content determination turned out to be 97.0%, the Calcium element is reported as 3.19% and the pH is reported as 5.9. For the same compound, in series [3] (setting [4]), the Character entry is “Yellow”; the Water content was found to be 10.1%; the “Relevant substance, Single impurity” value is on record as 0.25%; the “Relevant substance, Total impurities” value is on record as 0.54%. Further, in series [3] (setting [4]), the Content determination amounted to 96.5%, the Calcium element is 3.26% and the pH is listed as 5.8. Besides, in series [3] (setting [5]), the Character entry is given as “Yellow”; the Water content was found to be 10.7%; the “Relevant substance, Single impurity” value stood at 0.25%; the “Relevant substance, Total impurities” value is listed as 0.32%. In series [3] (setting [5]), the Content determination is on record as 96.7%, the Calcium element is given as 3.21% and the pH is given as 5.9. Moreover, in series [3] (summary of Table 1 and Table 2), the “Stability (comparison of salt forms, relevant substances and contents)” value is on record as “very stable”.
